System: peripheral blood mononuclear cells from Mtb-immune (PPD skin-test positive) subjects
Assay type: cell-based, human
Conditions: for Phil # responders (n = 38) / Phil % responders (n = 38): Philippines cohort; for Phil # responders (n = 38) / Phil % responders (n = 38) / Prov # responders (n = 22) / Prov % responders (n = 22): positive if SI≧2.0, peptide 1 and 10 μg/ml; for Prov # responders (n = 22) / Prov % responders (n = 22): Providence cohort; for number of Mtb-immune responders (proliferative response): all 40 Mtb-immune subjects, SI≧2.0

| Substance | Phil # responders (n = 38) | Phil % responders (n = 38) [%] | Prov # responders (n = 22) | Prov % responders (n = 22) [%] | number of Mtb-immune responders (proliferative response) | SI range | Mtb-immune subjects showing an in vitro proliferative response (control antigen 5 μg/ml, 40 Mtb-immune subjects) | response to mitogen (PHA 1 μg/ml, the 41 subjects who were tested) |
| --- | --- | --- | --- | --- | --- | --- | --- | --- |
| AELPGVDPDKDVD (listed as Mycobacterium tuberculosis) [16-3, aa 54-66 of 16 kDa Mtb protein] | 0 | 0 | 1 | 3 | one |  |  |  |
| ALYLLDGLRAQDD (listed as Mycobacterium tuberculosis) [32-2, aa 35-47 of 32 kDa Mtb protein (Antigen 85A)] | 3 | 8 | 2 | 5 |  |  |  |  |
| CEVWSNVSETISGPRLYGEM (listed as Mycobacterium tuberculosis) [14-5, aa 74-93 of 14 kDa Mtb protein] | 2 | 5 | 2 | 5 |  |  |  |  |
| EYWGAQLNAMKP (listed as Mycobacterium tuberculosis) [32-11, aa 265-276 of 32 kDa Mtb protein (Antigen 85A)] | 3 | 8 | 1 | 3 |  |  |  |  |
| FSELFAAFPSFAGLRPTFDT (listed as Mycobacterium tuberculosis) [16-2, aa 17-36 of 16 kDa Mtb protein] | 4 | 10 | 1 | 3 |  |  |  |  |
| GILTVSVAVSEGKPTEK (listed as Mycobacterium tuberculosis) [16-6, aa 119-135 of 16 kDa Mtb protein] | 2 | 5 | 1 | 3 |  |  |  |  |
| GSFGSAPSNGWLKLGLVEFG (listed as Mycobacterium tuberculosis) [14-2, aa 19-38 of 14 kDa Mtb protein] | 6 | 15 | 3 | 8 | six |  |  |  |
| GVFDFPDSGTHSW (listed as Mycobacterium tuberculosis) [32-10, aa 252-264 of 32 kDa Mtb protein (Antigen 85A)] | 3 | 8 | 2 | 5 |  |  |  |  |
| IAIGGAATGIAAVLTDGNPP [19-3] | 4 | 10 | 3 | 8 | six |  |  |  |
| KFLEGFVRTSNIKFQD (listed as Mycobacterium tuberculosis) [32-9, aa 227-242 of 32 kDa Mtb protein (Antigen 85A)] | 3 | 8 | 3 | 8 | six |  |  |  |
| LAIYHPQQFVYAGAMSGLLD (listed as Mycobacterium tuberculosis) [32-7, aa 135-154 of 32 kDa Mtb protein (Antigen 85A)] | 5 | 13 | 6 | 15 | six |  |  |  |
| LKLGLVEFGGVAKLNAEVMS (listed as Mycobacterium tuberculosis) [14-3, aa 30-49 of 14 kDa Mtb protein] | 3 | 8 | 4 | 10 | six |  |  |  |
| LPVEYLQVPSPSMGR (listed as Mycobacterium tuberculosis) [32-1, aa 6-20 of 32 kDa Mtb protein (Antigen 85A)] | 3 | 8 | 2 | 5 |  |  |  |  |
| LTIKAERTEQK (listed as Mycobacterium tuberculosis) [16-4, aa 74-84 of 16 kDa Mtb protein] | 0 | 0 | 5 | 13 |  |  |  |  |
| MLGNAPSVVPNTTLGMHC (listed as Mycobacterium tuberculosis) [14-1, aa 1-18 of 14 kDa Mtb protein] | 2 | 5 | 2 | 5 |  |  |  |  |
| QAVMLGTGTPNRA (listed as Mycobacterium tuberculosis) [14-4, aa 56-68 of 14 kDa Mtb protein] | 3 | 8 | 1 | 3 |  |  |  |  |
| QNVTGSVVCTTAAGNVN [19-2] | 3 | 8 | 4 | 10 | six |  |  |  |
| RHVKPTGSAVVGLSMAASSA (listed as Mycobacterium tuberculosis) [32-5, aa 113-132 of 32 kDa Mtb protein (Antigen 85A)] | 2 | 5 | 8 | 20 | six |  |  |  |
| RSLFPEFSELFAAFPSFAGL (listed as Mycobacterium tuberculosis) [16-1, aa 11-30 of 16 kDa Mtb protein] | 4 | 10 | 2 | 5 | six |  |  |  |
| SHYKITGTATGVD [19-5] | 1 | 3 | 3 | 8 |  |  |  |  |
| SVVMPVGGQSSFYSDW (listed as Mycobacterium tuberculosis) [32-3, aa 67-82 of 32 kDa Mtb protein (Antigen 85A)] | 5 | 13 | 2 | 5 | six |  |  |  |
| TFLTSELPGWLQ (listed as Mycobacterium tuberculosis) [32-4, aa 99-110 of 32 kDa Mtb protein (Antigen 85A)] | 2 | 5 | 2 | 5 |  |  |  |  |
| TT: tetanus toxoid, control antigen (Connaught) [reference compound] |  |  |  |  |  | 2-182 | All but six |  |
| VAVAGAAILVAGLSGCSSN [19-1] | 5 | 13 | 8 | 20 |  |  |  |  |
| VGLSMAASSALTLAIYHPQQ (listed as Mycobacterium tuberculosis) [32-6, aa 123-142 of 32 kDa Mtb protein (Antigen 85A)] | 4 | 10 | 6 | 15 | six |  |  |  |
| VSETISGPRLYGEMTMQGTR (listed as Mycobacterium tuberculosis) [14-6, aa 80-99 of 14 kDa Mtb protein] | 1 | 3 | 1 | 3 |  |  |  |  |
| VTLGYTSGTGQ (listed as Mycobacterium tuberculosis) [19-4, aa 107-117 of 19 kDa Mtb protein] | 2 | 5 | 3 | 8 |  |  |  |  |
| phytohemagglutinin [reference compound] |  |  |  |  |  |  |  | robust response |
